We go through 21 molecules from ChEMBL document CHEMBL3877278, “Antiproliferative activity of amino substituted benzo[b]thieno[2,3-b]pyrido[1,2-a]benzimidazoles explored by 2D and 3D cell culture system” (Eur J Med Chem, 2017).

Structures are written as SMILES.

The nature of series [1]: Lipophilicity, log D of the compound at pH 2.7 by HPLC method. Conditions: buffer. The series is classed as physicochemical.
Series [2] in a line: Antiproliferative activity against 2D culture of human SK-BR-3 cells after 72 hrs MTS assay. The series is classed as functional, cell-based. To be noted: SK-BR-3, 72 h. On the technique in general: Tetrazolium dyes change colour on reduction, which living cells bring about.
Series [3] is described as follows: Antiproliferative activity against 3D culture of human MDA-MB-231 cells after 72 hrs MTS assay. The class given is functional, cell-based. To be noted: MDA-MB-231, 72 h.
Series [4] can be described thus: Antiproliferative activity against 3D culture of human SK-BR-3 cells after 72 hrs MTS assay. The class given is functional, cell-based. Conditions: SK-BR-3, 72 h.
Series [5] in a line: Antiproliferative activity against 3D culture of human T47D cells after 72 hrs MTS assay. The series is classed as functional, cell-based.
Series [6] is described as follows: Antiproliferative activity against 2D culture of human MDA-MB-231 cells after 72 hrs MTS assay. The class given is functional, cell-based. Conditions: MDA-MB-231, 72 h.
A short description of series [7]: Antiproliferative activity against 2D culture of human T47D cells after 72 hrs MTS assay. The series is classed as functional, cell-based.
A short description of series [8]: Lipophilicity, log D of the compound at pH 7.4 by HPLC method. Conditions: buffer. The class given is physicochemical.

Broadly, the logD is lipophilicity at a set pH, counting ionised and neutral species. As usually defined, the IC50 is the concentration needed to halve the response being measured. On to `N#Cc1c(N2CCNCC2)c2ccccc2n2c1nc1ccccc12`, for which the results for the logD in series [1] and in series [8] (read-out: logD) were 0.53 and 2.22, respectively. The half-maximal inhibitory concentration (IC50) is 9 µM in series [2]; 7 µM in series [3]; above 30 µM in series [4]; above 30 µM in series [5]; 8 µM in series [6]; above 30 µM in series [7].

For the molecule `N#Cc1c(N2CCCCC2)c2sc3cc(N4CCCCC4)ccc3c2n2c1nc1ccccc12`, the IC50 in series [2], in series [3], in series [4], in series [5], in series [6] and in series [7] was above 30 µM throughout.

Consider `N#Cc1cc2sc3cc(F)ccc3c2n2c1nc1ccccc12`, for which the logD in series [1] came to 6.32; in series [8] (read-out: logD), 6.3. The concentration for half-maximal inhibition (IC50) in series [2] is above 30 µM; in series [3], above 30 µM; in series [4], above 30 µM; in series [5], above 30 µM; in series [6], above 30 µM; in series [7] it was 1 µM.

Regarding `N#Cc1c(Cl)c2ccccc2n2c1nc1ccccc12`, the logD was 5.9 in series [1] and 5.85 in series [8] (read-out: logD). Also, the IC50 in series [2] is above 30 µM; in series [3], above 30 µM; in series [4] it was above 30 µM; in series [5] it was above 30 µM; in series [6], above 30 µM; in series [7], 1 µM.

For the molecule `N#Cc1c(N2CCNCC2)c2sc3ccccc3c2n2c1nc1ccccc12`, the logD in series [1] came out at 1.08; in series [8] (read-out: logD), 3.44. Also, the IC50 in series [2] was 4 µM; in series [3] it was 5 µM; in series [4] it was above 30 µM; in series [5] it was above 30 µM; in series [6] it was 5 µM; in series [7], 5 µM.

Regarding `N#Cc1c(N2CCCCC2)c2ccc(N3CCCCC3)cc2n2c1nc1ccccc12`, the figures for the logD in series [1] and in series [8] were 7.51 and 9.11, respectively. In addition, the IC50 in series [2], in series [3], in series [4], in series [5], in series [6] and in series [7] was above 30 µM each time.

For the molecule `CC(C)CNc1c(C#N)c2nc3ccccc3n2c2c1sc1ccccc12`, the logD amounted to 4.67 in series [1] and 6.99 in series [8] (read-out: logD). Besides, the IC50 in series [2] was above 30 µM; in series [3] it was above 30 µM; in series [4], above 30 µM; in series [5] it was above 30 µM; in series [6] it was 9 µM; in series [7], 5 µM.

Turning to `N#Cc1cc2sc3cc(N4CCNCC4)ccc3c2n2c1nc1ccccc12`, the logD in series [1] was found to be 0.84; in series [8] (read-out: logD), 2.75. Moreover, the IC50 in series [2] is 2 µM; in series [3], 19 µM; in series [4] it was 24 µM; in series [5], 26 µM; in series [6] it was 4 µM; in series [7], 5 µM.

As for `CC(C)CNc1c(C#N)c2nc3ccccc3n2c2ccccc12`, the log distribution coefficient (logD) in series [1] is 2.77; in series [8] (read-out: logD), 5.52. Also, the IC50 in series [2] was 4 µM; in series [3] it was above 30 µM; in series [4], above 30 µM; in series [5], above 30 µM; in series [6] it was above 30 µM; in series [7], above 30 µM.

Take `N#Cc1cc2ccc(N3CCCCC3)cc2n2c1nc1ccccc12`: the log distribution coefficient (logD) in series [1] was 7; in series [8] (read-out: logD) it was 7.07. Further, the IC50 in series [2] is 3 µM; in series [3] it was above 30 µM; in series [4] it was above 30 µM; in series [5] it was above 30 µM; in series [6] it was 7 µM; in series [7], above 30 µM.

As for `N#Cc1c(N2CCCCC2)c2sc3ccccc3c2n2c1nc1ccccc12`, the logD turned out to be 7.7 in series [1] and 8.34 in series [8] (read-out: logD). Further, the half-maximal inhibitory concentration (IC50) in series [2] was above 30 µM; in series [3] it was above 30 µM; in series [4], above 30 µM; in series [5], above 30 µM; in series [6] it was 6 µM; in series [7] it was 5 µM.

On to `N#CC1C(=O)c2ccc(F)cc2-n2c1nc1ccccc12` (configuration not stated), for which the log distribution coefficient (logD) in series [1] was 3; in series [8] (read-out: logD) it was 2.46. Also, the IC50 in series [2], in series [3], in series [4], in series [5], in series [6] and in series [7] was above 30 µM throughout.

As to `CN(C)CCCNc1ccc2cc(C#N)c3nc4ccccc4n3c2c1`, the logD in series [1] was determined as 0.44; in series [8] (read-out: logD), 2.14. Further, the IC50 in series [2] is 4 µM; in series [3], 11 µM; in series [4], above 30 µM; in series [5], above 30 µM; in series [6] it was 3 µM; in series [7], 12 µM.

As to `N#Cc1c(N2CCNCC2)c2sc3cc(N4CCNCC4)ccc3c2n2c1nc1ccccc12`, the logD in series [1] was -0.51; in series [8] (read-out: logD) it was 1.89. The IC50 in series [2] was 8 µM; in series [3], 17 µM; in series [4] it was above 30 µM; in series [5], above 30 µM; in series [6], 4 µM; in series [7] it was 12 µM.

For the molecule `N#Cc1c(Cl)c2ccc(F)cc2n2c1nc1ccccc12`, the logD in series [1] was determined as 6.11; in series [8] (read-out: logD), 6.05. Also, the IC50 in series [2] was 5 µM; in series [3], above 30 µM; in series [4], above 30 µM; in series [5], above 30 µM; in series [6] it was 11 µM; in series [7], 2 µM.

Regarding `N#Cc1cc2sc3cc(N4CCCCC4)ccc3c2n2c1nc1ccccc12`, the logD worked out at 8.52 in series [1] and 8.5 in series [8] (read-out: logD). Moreover, the IC50 in series [2], in series [3], in series [4], in series [5], in series [6] and in series [7] was above 30 µM throughout.

In the case of `N#Cc1cc2ccc(F)cc2n2c1nc1ccccc12`, the logD in series [1] came to 5.14; in series [8] (read-out: logD), 5.11. Further, the IC50 was above 30 µM in series [2]; above 30 µM in series [3]; above 30 µM in series [4]; above 30 µM in series [5]; 30 µM in series [6]; above 30 µM in series [7].

`CC(C)CNc1ccc2c(NCC(C)C)c(C#N)c3nc4ccccc4n3c2c1`: the 50% inhibitory concentration (IC50) in series [2] was 5 µM; in series [3], above 30 µM; in series [4], above 30 µM; in series [5], 19 µM; in series [6] it was above 30 µM; in series [7], 12 µM.

With `CN(C)CCCNc1c(C#N)c2nc3ccccc3n2c2c1sc1ccccc12`, the logD in series [1] was determined as 0.69; in series [8] (read-out: logD), 3.44. For the same molecule, the IC50 was 1 µM in series [2]; 4 µM in series [3]; 10 µM in series [4]; 23 µM in series [5]; 3 µM in series [6]; 4 µM in series [7].

Regarding `COc1cccc2c1C(=O)c1c(O)c3c(c(O)c1C2=O)C[C@@](O)(C(=O)CO)C[C@@H]3O[C@H]1C[C@H](N)[C@H](O)[C@H](C)O1` [DOXORUBICIN], the IC50 worked out at 1.29 µM in series [4], 1.01 µM in series [5] and 0.08 µM in series [7].

For the molecule `CC(C)CNc1ccc2c(c1)sc1c(NCC(C)C)c(C#N)c3nc4ccccc4n3c12`, the IC50 was above 30 µM in series [2]; above 30 µM in series [3]; above 30 µM in series [4]; 8 µM in series [5]; above 30 µM in series [6]; 4 µM in series [7].
